Like-named read-outs stand apart in the source and are kept apart here. Marks after values point to notes of the source that are not given here.
Key:
[1] = tested on: phosphorylated STAT3 (pSTAT3); test: pSTAT3 IHC staining of tumor samples; format: in vivo, Japanese patients; conditions: one colorectal cancer patient
Experimental: Assessments of antitumor activity were objective tumor response, median progression-free survival (PFS) and median overall survival (OS). Tumor response was evaluated according to RECIST 1.1 [21]. Median PFS was defined as the time from the day of the first dose of napabucasin to the date of progressive disease (PD), if neither was observed, the patient was to be censored at the last assessment of tumor response. Median OS was defined as the time from the first dose of napabucasin to the date of death from any cause. Patients who were still alive at the final observation were to be censored at the date they were last known to be alive. STAT3 single nucleotide polymorphism (SNP) genotyping was carried out using DNA extracted from whole blood samples to assess tumor response, median PFS, and median OS. Immunohistochemistry (IHC), mutation analysis (Oncomine Comprehensive Assay), and microsatellite instability analyses were performed in tumor tissue samples obtained from patients who provided additional consent to assess the relationship between specific biomarkers and the antitumor activity of napabucasin. IHC staining of phosphorylated STAT3 (pSTAT3) was carried out on archived tumor samples which were collected pre-treatment, and de novo lesions during and post-treatment were also collected, according to the protocol of a recent Phase 3 study. Positive pSTAT3 staining was defined as cancer cell nuclear staining ≥ 5% plus a stroma staining score of at least 2. The biomarker testing facility was responsible for IHC staining and storage of tumor samples. If consent to a genetic test was withdrawn, samples and associated analyses were discarded.

colorectal cancer = tested on: colorectal cancer; design: method as in PMID 29397354; conditions: cited from earlier work
prostate cancer cell = tested on: prostate cancer cell; design: method as in PMID 26899963; conditions: in vitro; cited from earlier work
[2] = Plasma and urine pharmacokinetics of napabucasin in patients; format: in vivo, Japanese patients; conditions: for AUC(0-t) / AUC(0-inf) / Cmax / half-life / Tmax: human, oral; for AUC(0-t) / AUC(0-inf) / Cmax / half-life / Tmax / CL/F, range / CL/F, range (apparent total clearance at steady state): plasma; for AUC(0-inf): read-out: AUC0–∞, range; for Cmax: read-out: Cmax, range; for half-life: read-out: t1/2, range; for Tmax: read-out: tmax, range
Experimental: Blood samples for PK were obtained on Days 1, 2, 8, and 15 of Cycle 1 and Days 29 and 30 of Cycle 2. On Day 1 of Cycle 1 and Day 29 of Cycle 2, blood samples were collected before the morning dose and at 2, 4, 6, 8, 10, 12, and 24 h after the morning dose of napabucasin; for samples collected 24 h following the morning dose of napabucasin on Day 1 and Day 29, collection occurred before the morning dose was administered on Day 2 and Day 30, respectively. On Days 8 and 15 of Cycle 1, blood samples were taken 168 and 336 h after the morning dose on Day 1. Urine samples were taken on Days 1 and 2 of Cycle 1 and Days 29 and 30 of Cycle 2. Samples were collected immediately after the morning dose on Days 1 and 29 through to immediately before the morning dose the next day. Plasma napabucasin concentration was measured by Frontage Laboratories and CMIC Pharma Science Co., Ltd and urine napabucasin concentration was measured by CMIC Pharma Science Co., Ltd.
The safety and antitumor activity (intention-to-treat [ITT]) analysis populations included all patients that received at least one dose of napabucasin. The DLT analysis population included all patients that received at least one dose of napabucasin with at least 80% compliance ([number of capsules actually ingested/number of capsules that should have been ingested per dose […]] × 100) during the DLT evaluation period, and those patients who experienced DLT during the evaluation period regardless of compliance. The PK population included all patients that received at least one dose of napabucasin and had plasma napabucasin concentration data for at least one-time point after the first dose of napabucasin.

[3] = Post-napabucasin: Day 26 from the first dose, treatment ongoing
[4] = 240 mg, Cycle 1 (Day 1), Cohort 1 (480 mg/day, 240 mg BID), n = 3
[5] = 240 mg, Cycle 2 (Day 29), Cohort 1 (480 mg/day, 240 mg BID), n = 3
[6] = 480 mg, Cycle 1 (Day 1), Cohort 2 (960 mg/day, 480 mg BID), n = 4
[7] = 480 mg, Cycle 2 (Day 29), Cohort 2 (960 mg/day, 480 mg BID), n = 3
[8] = 720 mg, Cycle 1 (Day 1), Cohort 3 (1440 mg/day, 720 mg BID), n = 7
[9] = 720 mg, Cycle 2 (Day 29), Cohort 3 (1440 mg/day, 720 mg BID), n = 5

Question: With `CC(=O)c1cc2c(o1)C(=O)c1ccccc1C2=O` [napabucasin] as the compound, how does the pSTAT3 status ([1]; post-napabucasin (during treatment), positive = nuclear staining ≥ 5% plus stroma score at least 2) read?
Answer: The pSTAT3 status was “positive”.

Question: What about the “% Nuclear tumor positive (pSTAT3 IHC)” value [1, 3] of the same compound?
Answer: Its value is 10%.

Question: What about the “H-score (pSTAT3 IHC)” value [1, 3] of the same compound?
Answer: The value was 15.

Question: And the “Microenvironment % positive (pSTAT3 IHC)” value [1, 3]?
Answer: The value was 50%.

Question: What about the “Microenvironment intensity (pSTAT3 IHC)” value [1, 3] of the same compound?
Answer: The value was 2.

Question: What about the “Percent nuclear tumor staining 0 (pSTAT3 IHC)” value [1, 3] of the same compound?
Answer: Its value is 90%.

Question: And the “Percent nuclear tumor staining 1 + (pSTAT3 IHC)” value [1, 3]?
Answer: Its value is 5%.

Question: And the “Percent nuclear tumor staining 2 + (pSTAT3 IHC)” value [1, 3]?
Answer: The value was 5%.

Question: What about the “Percent nuclear tumor staining 3 + (pSTAT3 IHC)” value [1, 3] of the same compound?
Answer: Its value is 0%.

Question: What about the “Patients who achieved SD” value (colorectal cancer) of the same compound?
Answer: Its value is 12%.

Question: And the “Effect on prostate cancer cells” value (prostate cancer cell)?
Answer: The value was “inhibited prostate cancer cell survival, motility, and tumorigenesis in vitro”.

Question: What about the AUC(0-t) ([2]; 240 mg, Cycle 1 (Day 1), Cohort 1 (480 mg/day, 240 mg BID), n = 3, read-out: AUC0–12, range) of the same compound?
Answer: Its AUC(0-t) is 1370 to 2990 ng·h/mL.

Question: What about the AUC(0-t) ([2]; 240 mg, Cycle 1 (Day 1), Cohort 1 (480 mg/day, 240 mg BID), n = 3, read-out: AUC0–24, range) of the same compound?
Answer: Its AUC(0-t) is 2020 to 3800 ng·h/mL.

Question: What about the AUC(0-inf) [2, 4] of the same compound?
Answer: The AUC(0-inf) was 3650 to 4060 ng·h/mL.

Question: And the Cmax [2, 4]?
Answer: The Cmax was 194 to 468 ng/mL.

Question: What about the half-life [2, 4] of the same compound?
Answer: The half-life was 5 to 25 h.

Question: What about the Tmax [2, 4] of the same compound?
Answer: The Tmax was 4 to 6 h.

Question: And the AUC(0-t) ([2]; 240 mg, Cycle 2 (Day 29), Cohort 1 (480 mg/day, 240 mg BID), n = 3, read-out: AUC0–12, range)?
Answer: The AUC(0-t) was 2190 to 4940 ng·h/mL.

Question: And the AUC(0-t) ([2]; 240 mg, Cycle 2 (Day 29), Cohort 1 (480 mg/day, 240 mg BID), n = 3, read-out: AUC0–24, range)?
Answer: The AUC(0-t) was 2510 to 6180 ng·h/mL.

Question: What about the AUC(0-inf) [2, 5] of the same compound?
Answer: The AUC(0-inf) was 2570 to 6370 ng·h/mL.

Question: And the Cmax [2, 5]?
Answer: The Cmax was 472 to 652 ng/mL.

Question: And the half-life [2, 5]?
Answer: Its half-life is 4 to 5 h.

Question: And the Tmax [2, 5]?
Answer: The Tmax was 4 to 10 h.

Question: And the AUC(0-t) ([2]; 480 mg, Cycle 1 (Day 1), Cohort 2 (960 mg/day, 480 mg BID), n = 4, read-out: AUC0–12, range)?
Answer: Its AUC(0-t) is 984 to 4780 ng·h/mL.

Question: And the AUC(0-t) ([2]; 480 mg, Cycle 1 (Day 1), Cohort 2 (960 mg/day, 480 mg BID), n = 4, read-out: AUC0–24, range)?
Answer: The AUC(0-t) was 1200 to 6360 ng·h/mL.

Question: And the AUC(0-inf) [2, 6]?
Answer: The AUC(0-inf) was 1410 to 7360 ng·h/mL.

Question: And the Cmax [2, 6]?
Answer: The Cmax was 199 to 719 ng/mL.

Question: And the half-life [2, 6]?
Answer: Its half-life is 7 to 8 h.

Question: And the Tmax [2, 6]?
Answer: Its Tmax is 2 to 6 h.

Question: And the AUC(0-t) ([2]; 480 mg, Cycle 2 (Day 29), Cohort 2 (960 mg/day, 480 mg BID), n = 3, read-out: AUC0–12, range)?
Answer: Its AUC(0-t) is 2560 to 2760 ng·h/mL.

Question: What about the AUC(0-t) ([2]; 480 mg, Cycle 2 (Day 29), Cohort 2 (960 mg/day, 480 mg BID), n = 3, read-out: AUC0–24, range) of the same compound?
Answer: The AUC(0-t) was 2750 to 2880 ng·h/mL.

Question: What about the AUC(0-inf) [2, 7] of the same compound?
Answer: Its AUC(0-inf) is 2750 to 2880 ng·h/mL.

Question: And the Cmax [2, 7]?
Answer: Its Cmax is 391 to 477 ng/mL.

Question: And the half-life [2, 7]?
Answer: The half-life was 2 to 3 h.

Question: What about the Tmax [2, 7] of the same compound?
Answer: Its Tmax is 2 to 10 h.

Question: And the AUC(0-t) ([2]; 720 mg, Cycle 1 (Day 1), Cohort 3 (1440 mg/day, 720 mg BID), n = 7, read-out: AUC0–12, range)?
Answer: Its AUC(0-t) is 3440 to 11000 ng·h/mL.

Question: And the AUC(0-t) ([2]; 720 mg, Cycle 1 (Day 1), Cohort 3 (1440 mg/day, 720 mg BID), n = 7, read-out: AUC0–24, range)?
Answer: Its AUC(0-t) is 3920 to 14500 ng·h/mL.

Question: What about the AUC(0-inf) [2, 8] of the same compound?
Answer: Its AUC(0-inf) is 3870 to 14800 ng·h/mL.

Question: And the Cmax [2, 8]?
Answer: Its Cmax is 641 to 2070 ng/mL.

Question: And the half-life [2, 8]?
Answer: The half-life was 3 to 12 h.

Question: And the Tmax [2, 8]?
Answer: Its Tmax is 2 to 6 h.

Question: What about the AUC(0-t) ([2]; 720 mg, Cycle 2 (Day 29), Cohort 3 (1440 mg/day, 720 mg BID), n = 5, read-out: AUC0–12, range) of the same compound?
Answer: Its AUC(0-t) is 3650 to 15400 ng·h/mL.

Question: What about the AUC(0-t) ([2]; 720 mg, Cycle 2 (Day 29), Cohort 3 (1440 mg/day, 720 mg BID), n = 5, read-out: AUC0–24, range) of the same compound?
Answer: The AUC(0-t) was 4480 to 20200 ng·h/mL.

Question: And the AUC(0-inf) [2, 9]?
Answer: Its AUC(0-inf) is 4740 to 123000 ng·h/mL.

Question: What about the Cmax [2, 9] of the same compound?
Answer: The Cmax was 596 to 1930 ng/mL.

Question: And the half-life [2, 9]?
Answer: The half-life was 5 to 192 h.

Question: What about the Tmax [2, 9] of the same compound?
Answer: Its Tmax is 2 to 4 h.

Question: And the “Difference in Cmax and AUC0–12 between doses” value ([2]; plasma, 480, 960, 1440 mg/day)?
Answer: Its value is “no clear difference between doses”.

Question: What about the “CL/F, range” value ([2]; Cycle 1 (Day 1), Cohort 1 (480 mg/day, 240 mg BID), n = 3) of the same compound?
Answer: Its value is 59 to 66 L/h.

Question: What about the “CL/F, range” value ([2]; Cycle 1 (Day 1), Cohort 2 (960 mg/day, 480 mg BID), n = 4) of the same compound?
Answer: Its value is 65 to 341 L/h.

Question: And the “CL/F, range” value ([2]; Cycle 1 (Day 1), Cohort 3 (1440 mg/day, 720 mg BID), n = 7)?
Answer: Its value is 49 to 186 L/h.

Question: What about the “CL/F, range (apparent total clearance at steady state)” value ([2]; Cycle 2 (Day 29), Cohort 1 (480 mg/day, 240 mg BID), n = 3) of the same compound?
Answer: The value was 49–109^a L/h.

Question: And the “CL/F, range (apparent total clearance at steady state)” value ([2]; Cycle 2 (Day 29), Cohort 2 (960 mg/day, 480 mg BID), n = 3)?
Answer: The value was 174–188^a L/h.

Question: And the “CL/F, range (apparent total clearance at steady state)” value ([2]; Cycle 2 (Day 29), Cohort 3 (1440 mg/day, 720 mg BID), n = 5)?
Answer: The value was 47–197^a L/h.

Question: What about the Accumulation in plasma ([2]; repeated BID dosing, Cycle 1 to Cycle 2) of the same compound?
Answer: The Accumulation in plasma was “no abnormal accumulation was observed”.

Question: And the “Difference in urinary PK between cohorts” value ([2]; urine, 480, 960, 1440 mg/day)?
Answer: Its value is “no clear differences were observed between cohorts”.

— PMC7188713, “Phase 1 study of napabucasin, a cancer stemness inhibitor, in patients with advanced solid tumors” (Cancer Chemotherapy and Pharmacology, 2020)
